Reference: the NIST ThermoML archive (doi:10.1016/j.tca.2005.11.021)
± gives the expanded uncertainty stated by the source.

Experiment: molar heat capacity at constant pressure
Conditions: 101.33 kPa, Crystal, Small (less than 1 g) adiabatic calorimetry

Question: Which results are given for N[C@@H](CCC(=O)[O-])C(=O)[O-].N[C@@H](CCC(=O)[O-])C(=O)[O-].O.O.O.O.O.O.O.O.O.[Ho+3].[Ho+3].[O-][Cl+3]([O-])([O-])O.[O-][Cl+3]([O-])([O-])O.[O-][Cl+3]([O-])([O-])[O-].[O-][Cl+3]([O-])([O-])[O-] [diholmium tetraperchlorate bis-l-glutamate nonahydrate]?
Answer: molar heat capacity at constant pressure (78.47 K): 416.36 ± 1.8 J/K/mol; molar heat capacity at constant pressure (79.95 K): 427.06 ± 1.8 J/K/mol; molar heat capacity at constant pressure (81.58 K): 448.95 ± 1.9 J/K/mol; molar heat capacity at constant pressure (83.14 K): 457.5 ± 1.9 J/K/mol; molar heat capacity at constant pressure (84.69 K): 466.74 ± 2 J/K/mol; molar heat capacity at constant pressure (86.44 K): 480.65 ± 2 J/K/mol; molar heat capacity at constant pressure (88.37 K): 490.26 ± 2.1 J/K/mol; molar heat capacity at constant pressure (90.58 K): 502.33 ± 1.9 J/K/mol; molar heat capacity at constant pressure (93.05 K): 521.47 ± 1.9 J/K/mol; molar heat capacity at constant pressure (95.51 K): 537.31 ± 2 J/K/mol; molar heat capacity at constant pressure (97.87 K): 558.72 ± 2.1 J/K/mol; molar heat capacity at constant pressure (100.23 K): 562.37 ± 2.1 J/K/mol; molar heat capacity at constant pressure (102.52 K): 570.54 ± 2.1 J/K/mol; molar heat capacity at constant pressure (104.79 K): 579.03 ± 2.1 J/K/mol; molar heat capacity at constant pressure (107.01 K): 584.28 ± 2.1 J/K/mol; molar heat capacity at constant pressure (109.19 K): 599.35 ± 2.2 J/K/mol; molar heat capacity at constant pressure (111.54 K): 612.05 ± 2.2 J/K/mol; molar heat capacity at constant pressure (114.01 K): 619.47 ± 2.3 J/K/mol; molar heat capacity at constant pressure (116.69 K): 633.45 ± 2.3 J/K/mol; molar heat capacity at constant pressure (119.55 K): 640.47 ± 2.3 J/K/mol; molar heat capacity at constant pressure (122.36 K): 656.69 ± 2.4 J/K/mol; molar heat capacity at constant pressure (125.12 K): 670.24 ± 2.4 J/K/mol; molar heat capacity at constant pressure (127.84 K): 678.7 ± 2.5 J/K/mol; molar heat capacity at constant pressure (130.52 K): 691.49 ± 2.5 J/K/mol; molar heat capacity at constant pressure (133.16 K): 703.15 ± 2.5 J/K/mol; molar heat capacity at constant pressure (136.41 K): 717.73 ± 2.6 J/K/mol; molar heat capacity at constant pressure (140.25 K): 728.41 ± 2.6 J/K/mol; molar heat capacity at constant pressure (144.03 K): 745.38 ± 2.7 J/K/mol; molar heat capacity at constant pressure (147.75 K): 759.44 ± 2.8 J/K/mol; molar heat capacity at constant pressure (151.88 K): 781.07 ± 2.8 J/K/mol; molar heat capacity at constant pressure (156.39 K): 802.41 ± 2.9 J/K/mol; molar heat capacity at constant pressure (160.82 K): 822.03 ± 3 J/K/mol; molar heat capacity at constant pressure (165.17 K): 841.38 ± 3 J/K/mol; molar heat capacity at constant pressure (169.46 K): 860.32 ± 3.1 J/K/mol; molar heat capacity at constant pressure (173.69 K): 880.13 ± 3.2 J/K/mol; molar heat capacity at constant pressure (177.85 K): 903.04 ± 3.2 J/K/mol; molar heat capacity at constant pressure (181.91 K): 962.58 ± 3.5 J/K/mol; molar heat capacity at constant pressure (185.82 K): 1035.9 ± 3.7 J/K/mol; molar heat capacity at constant pressure (189.62 K): 1053.8 ± 3.8 J/K/mol; molar heat capacity at constant pressure (193.38 K): 1068 ± 3.8 J/K/mol; molar heat capacity at constant pressure (197.09 K): 1084.5 ± 3.9 J/K/mol; molar heat capacity at constant pressure (200.76 K): 1104.7 ± 3.9 J/K/mol; molar heat capacity at constant pressure (204.4 K): 1116.6 ± 4 J/K/mol; molar heat capacity at constant pressure (208 K): 1131.5 ± 4 J/K/mol; molar heat capacity at constant pressure (211.57 K): 1149.2 ± 4.1 J/K/mol; molar heat capacity at constant pressure (215.09 K): 1170.1 ± 4.2 J/K/mol; molar heat capacity at constant pressure (218.58 K): 1180.3 ± 4.2 J/K/mol; molar heat capacity at constant pressure (222.04 K): 1198 ± 4.3 J/K/mol; molar heat capacity at constant pressure (225.47 K): 1211.6 ± 4.3 J/K/mol; molar heat capacity at constant pressure (228.86 K): 1235.1 ± 4.4 J/K/mol; molar heat capacity at constant pressure (232.19 K): 1241.6 ± 4.4 J/K/mol; molar heat capacity at constant pressure (235.57 K): 1256.3 ± 4.5 J/K/mol; molar heat capacity at constant pressure (239.35 K): 1265.1 ± 4.5 J/K/mol; molar heat capacity at constant pressure (243.62 K): 1286.5 ± 4.6 J/K/mol; molar heat capacity at constant pressure (247.83 K): 1297.2 ± 4.6 J/K/mol; molar heat capacity at constant pressure (252.02 K): 1318.1 ± 4.7 J/K/mol; molar heat capacity at constant pressure (256.17 K): 1324 ± 4.7 J/K/mol; molar heat capacity at constant pressure (260.28 K): 1339.5 ± 4.8 J/K/mol; molar heat capacity at constant pressure (264.35 K): 1355.8 ± 4.8 J/K/mol; molar heat capacity at constant pressure (268.38 K): 1368.2 ± 4.9 J/K/mol; molar heat capacity at constant pressure (272.36 K): 1390.1 ± 4.9 J/K/mol; molar heat capacity at constant pressure (276.3 K): 1406.8 ± 5 J/K/mol; molar heat capacity at constant pressure (280.21 K): 1418.2 ± 5 J/K/mol; molar heat capacity at constant pressure (284.86 K): 1435.3 ± 5.1 J/K/mol; molar heat capacity at constant pressure (290.1 K): 1457.8 ± 5.2 J/K/mol; molar heat capacity at constant pressure (295.36 K): 1477.1 ± 5.2 J/K/mol; molar heat capacity at constant pressure (300.5 K): 1499 ± 5.3 J/K/mol; molar heat capacity at constant pressure (305.57 K): 1521.1 ± 5.4 J/K/mol; molar heat capacity at constant pressure (310.61 K): 1529.2 ± 5.4 J/K/mol; molar heat capacity at constant pressure (315.6 K): 1558.3 ± 5.5 J/K/mol; molar heat capacity at constant pressure (320.54 K): 1577.6 ± 5.6 J/K/mol; molar heat capacity at constant pressure (325.43 K): 1599.1 ± 5.7 J/K/mol; molar heat capacity at constant pressure (330.3 K): 1607 ± 5.7 J/K/mol; molar heat capacity at constant pressure (335.02 K): 1641.9 ± 5.8 J/K/mol; molar heat capacity at constant pressure (339.66 K): 1649.4 ± 5.8 J/K/mol; molar heat capacity at constant pressure (344.14 K): 1668.3 ± 5.9 J/K/mol
